# Results: patent US7037901B1, “Radiosensitization by indolocarbazole derivatives” (priority 2001, dated 2006)
# Tests used:
# [1] = system: human breast cancer MCF-7 cells; test: Clonogenic survival assay with radiation (radiosensitization) in MCF-7 cells; type: cell-based
# Method: (§1) Clonogenic Survival Assay. […] 18–24 h prior to experimental studies.
# (§2) Colonies consisting of >50 cells were counted.
# (§3) Irradiation of Cells. Drug-treated and control cells in medium were irradiated using a cobalt-60 source (Eldorado 8; Theratronics, Canada) at a dose rate of 105 cGy/min.
# (§4) Analysis of Survival Curves. Survival curves were corrected for cytotoxicity induced by drug alone treatment. Sensitization enhancement ratios (SERs) and standard deviations for survival curves were determined at 10% cell survival. Each SER was calculated by dividing the radiation dose to induce 10% cell survival in the absence of radiosensitizer with the radiation dose to induce 10% cell survival in the presence of radiosensitizer.
# The updated programs developed by Dr. N. Albright (San Rafael, Calif.) (Albright, N., Radiat. Res., 112:331–340 (1987)) were used for curve fitting for MCF-7 cells with the linear quadratic (LQ) and the single hit multi-target (SHMT) models. Both the LQ and SHMT models gave qualitatively good fits. The fit with the SHMT model was used for the present study.
# [2] = system: human breast cancer MCF-7 cells; test: Clonogenic survival assay, drug alone (cytotoxicity) in MCF-7 cells; type: cell-based; settings: 1 μM camptothecin for 1 h, read graphically from FIG. 2
# Method: as §1, §2
# [3] = target: T1, covalent topoisomerase-DNA cross-links in CHO cells (Cricetulus griseus, UniProt Q07050, S505G); test: In vivo K+-SDS co-precipitation assay for protein-DNA cross-links; type: cell-based, Chinese hamster; settings: FIG. 5
# T1 construct: endogenous in cells; host or cells: Chinese hamster ovary CHO cells
# T1 sequence (Q07050 2-767 S505G): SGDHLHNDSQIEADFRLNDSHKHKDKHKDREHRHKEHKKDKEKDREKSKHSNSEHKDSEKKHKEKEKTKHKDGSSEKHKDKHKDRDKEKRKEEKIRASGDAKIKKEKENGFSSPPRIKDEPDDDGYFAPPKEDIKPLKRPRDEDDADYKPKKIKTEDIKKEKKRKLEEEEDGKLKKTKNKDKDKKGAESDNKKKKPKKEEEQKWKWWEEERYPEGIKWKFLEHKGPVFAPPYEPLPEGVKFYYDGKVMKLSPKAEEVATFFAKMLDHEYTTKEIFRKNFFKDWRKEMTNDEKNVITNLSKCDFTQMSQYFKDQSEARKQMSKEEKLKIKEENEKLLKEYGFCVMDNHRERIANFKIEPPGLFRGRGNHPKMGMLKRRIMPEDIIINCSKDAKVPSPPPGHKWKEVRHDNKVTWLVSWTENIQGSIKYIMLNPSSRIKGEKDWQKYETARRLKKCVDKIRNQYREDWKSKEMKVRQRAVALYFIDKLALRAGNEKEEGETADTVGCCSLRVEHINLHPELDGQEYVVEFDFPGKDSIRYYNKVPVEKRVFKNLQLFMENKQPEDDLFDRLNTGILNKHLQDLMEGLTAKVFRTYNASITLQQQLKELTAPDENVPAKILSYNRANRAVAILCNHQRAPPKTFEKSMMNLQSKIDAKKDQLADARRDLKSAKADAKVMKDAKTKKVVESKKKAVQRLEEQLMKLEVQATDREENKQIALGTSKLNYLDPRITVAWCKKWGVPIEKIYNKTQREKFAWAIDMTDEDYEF
# Excerpt: In vivo K^+-SDS co-precipitation assay for protein-DNA cross-links. The K^+-SDS co-precipitation assay as described previously (Chen, Y. N., et al., J. Biol. Chem., 265:10073–10080 (1990)) was used to quantify the formation of covalent topoisomerase-DNA cross-links in drug-treated cells.
# Briefly, the DNA in logarithmic growing Chinese hamster CHO cells was overnight-labeled in medium containing 1 μCi/ml of [mehtyl-^3H] thymidine. These cells were then trypsinized and diluted in fresh medium before aliquoted into a 24-well plate. After overnight incubation, the labeled cells were treated with various concentrations of drugs for 30 min, washed with phosphate-buffered saline once, and lysed by adding 1 ml of prewarmed lysis solution (1.25% SDS, 5 mM EDTA, 0.4 mg/ml salmon sperm DNA, pH 8.0, 65° C.).
# Following shearing chromosomal DNA by passing the lysate through a 19-gauge needle, the sample was transferred to a tube containing 0.25 ml of 325 mM KCl. The sample was vortexed vigorously for 10 s, cooled on ice for 10 min and centrifuged at 3000 rpm for 10 min at 4° C.
# The pellet was then resuspended in 1 ml of a wash solution (100 mM KCl, 1 mM EDTA, 0.1 mg/ml salmon sperm DNA, 10 mM Tris-HCl, pH 8.0) and placed at 65° C. for 10 min with occasional mixing. The sample was again cooled on ice for 10 min and centrifuged at 3000 rpm for 10 min at 4° C. After the pellet from each sample was washed again, the pellet was finally resuspended in 0.2 ml of 65° C. water and added to 5 ml of scintillation fluid to determine radioactive counts.
# The background precipitable counts were obtained by treating the lysate with proteinase K (400 μg/ml) at 65° C. for 2 h. Data are arithmetic means (±SD) of three determinations, and the background counts have been subtracted.
# [4] = system: camptothecin-resistant, TOP1 mutant DC3F/C-10 cells
# Method: Clonogenic Survival Assay. For a typical clonogenic survival experiment, stock cultures of exponentially growing cells were trypsinized, rinsed, and plated (5×10^5 cells per dish for DC3F and DC3F/C-10 cells; 1×10^6 cells for MCF-7 cells) into 100-mm petri dishes and incubated at 37° C. 18–24 h prior to experimental studies.
# Following various experimental protocols with drug incubation and irradiation, cells were trypsinized, rinsed, counted, and plated for […] colony formation. Depending on the anticipated survival level, 10^2 to 10^5 cells were plated per dose point. When higher cell numbers were plated, large petri dishes were used to avoid possible cell-density effect (100-mm instead of 60-mm petri dishes for cell number≧5×10^4). Depending on the treatment protocols, an equivalent amount of DMSO was added into each of the control radiation alone dishes (final DMSO concentration <0.1%).
# Following seven to fourteen days of incubation, colonies were fixed with methanol/acetic acid (3:1), stained with crystal violet. Colonies consisting of >50 cells were counted. All survival points were done in triplicate, and experiments were conducted a minimum of two times. Error bars shown in the figures represent standard deviations (SD) and are shown when larger than the symbol.
# The DC3F/C-10 cell line was selected from the Chinese Hamster lung fibroblast DC3F cell line in the presence of 1 μM of camptothecin (Albright, N., Radiat. Res., 112:331–340 (1987), and Chen, Y. N., J. Biol. Chem., 265:10073–10080 (1990)). […] In an attempt to determine the importance of TOP1 in mediating the cytotoxic and radiosensitizing effects by INDO derivatives, clonogenic survival assays were performed in DC3F and DC3F/C10 cells.
# DC3F cells = test: Radiosensitization in DC3F cells (clonogenic survival with radiation); type: cell-based, Chinese hamster
# Method: as §1, §2, §3, §4
# [5] = system: TOP1 mutant DC3F/C10 cells; test: Radiosensitization in DC3F/C10 cells (clonogenic survival with radiation); type: cell-based, Chinese hamster; settings: DC3F/C10 cells
# Method: as §1, §2, §3, §4
# purified human TOP1 = target: T2, purified human TOP1 (Homo sapiens, UniProt P11387); test: In vitro drug-stimulated TOP1 cleavage assay (pHOT1 plasmid nicking); type: biochemical; settings: purified human TOP1; FIG. 4, 4C
# T2 construct: purchased TopoGEN, Inc. (Columbus, Ohio)
# T2 sequence (P11387 1-765): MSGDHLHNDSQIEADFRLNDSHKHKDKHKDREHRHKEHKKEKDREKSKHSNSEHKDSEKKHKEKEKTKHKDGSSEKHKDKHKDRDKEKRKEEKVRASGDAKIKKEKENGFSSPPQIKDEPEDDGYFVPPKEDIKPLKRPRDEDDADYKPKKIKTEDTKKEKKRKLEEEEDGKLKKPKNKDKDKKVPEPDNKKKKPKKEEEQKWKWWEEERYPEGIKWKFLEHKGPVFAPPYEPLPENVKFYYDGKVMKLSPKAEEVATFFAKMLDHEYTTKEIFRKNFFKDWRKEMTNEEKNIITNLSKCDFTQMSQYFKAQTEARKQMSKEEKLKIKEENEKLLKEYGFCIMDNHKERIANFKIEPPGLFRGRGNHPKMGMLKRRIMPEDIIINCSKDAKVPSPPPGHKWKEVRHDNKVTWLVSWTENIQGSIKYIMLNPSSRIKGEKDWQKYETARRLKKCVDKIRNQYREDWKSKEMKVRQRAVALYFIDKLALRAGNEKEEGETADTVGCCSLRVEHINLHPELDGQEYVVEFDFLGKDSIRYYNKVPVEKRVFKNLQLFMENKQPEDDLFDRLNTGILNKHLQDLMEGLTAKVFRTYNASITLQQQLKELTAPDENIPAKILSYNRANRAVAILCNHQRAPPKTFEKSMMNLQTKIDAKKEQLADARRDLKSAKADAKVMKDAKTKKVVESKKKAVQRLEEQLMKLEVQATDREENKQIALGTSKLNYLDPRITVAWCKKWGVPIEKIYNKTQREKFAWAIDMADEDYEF
# Method: In vitro drug-stimulated TOP1 cleavage assay. Drug-stimulated DNA cleavage assay using purified human TOP1 was performed according to the protocol provided by TopoGEN Inc. (Columbus, Ohio) with modifications.
# Briefly, supercoiled pHOT1 plasmid DNA (0.2 μg) was incubated with 1 unit of human TOP1 in cleavage buffer (50 mM Tris, pH 7.8, 50 mM KCl, 10 mM MgCl2, 1 mM dithiothreitol, 1 mM EDTA) in the presence of varying concentrations of the drug under study. Following a 30-min incubation at 37° C., the reactions were terminated by adding SDS to 1.0% and proteinase K to 200 μg/ml. The proteinase K treatment continued at 37° C. for 1 h. The sample was then mixed with loading dye (containing sucrose and bromphenol blue) and separated in 1% agarose gel in 0.08 M Tris-phosphate, 0.008 M EDTA, pH 8.0 buffer at room temperature for 16 h.
# The gel was initially stained with ethidium bromide ([…]), washed and photographed under UV light. In order to separate the “nicked” from the “relaxed” DNA population, the gel was further run for 4 h in the presence of ethidium bromide before being photographed again under UV light. The photograph was scanned and the intensity of the nicked DNA of each lane was measured using the ImageJ program obtained from the National Institutes of Health (web site: rsb.info.nih.gov/ij/). The intensity of the nicked band of each lane was plotted after the background intensity (pHOT1+TOP1 lane) was subtracted.
SMILES,"ER (SER per footnote c, sensitization enhancement ratio) ([1]; 1 μM camptothecin 1 h before radiation, at 10% survival)","Dq (width of the shoulder of the radiation survival curve) ([1]; SHMT model fit, FIG. 3B)","RT dose (Gy) at 10% survival ([1]; pre-treated 1 μM camptothecin 1 h, rinsed, then radiation) [Gy]",Percent of cell survival without RT [2] [%],Potency in stabilizing DNA-protein crosslinks (rank order) [3],"Relative resistance of DC3F/C10 cells to the cytotoxic effect ([4]; LD50 of DC3F/C10 divided by LD50 of DC3F, camptothecin 30-min treatment)",RR (relative resistance) ([4]; LD50 of DC3F/C-10 cells divided by LD50 of DC3F cells),Radiation Dose (Gy) at 10% Survival (DC3F cells; 0.1 μM) [Gy],SER (DC3F cells; 0.1 μM),Radiation Dose (Gy) at 10% Survival (DC3F cells; 1.0 μM) [Gy],SER (DC3F cells; 1.0 μM),Radiation Dose (Gy) at 10% Survival ([5]; 1.0 μM) [Gy],SER ([5]; 1.0 μM),Radiation Dose (Gy) at 10% Survival ([5]; 10 μM) [Gy],SER ([5]; 10 μM),Potency in inducing TOP1-mediated DNA cleavage (nicking of pHOT1) (purified human TOP1)
"CC[C@@]1(O)C(=O)OCc2c1cc1n(c2=O)Cc2cc3ccccc3nc2-1 [Camptothecin, Camptothecin lactone, reference compound]",1.4,drastically reduced,5.0,72 ± 5,most potent,more than 12 fold,>12,4.3,1.4,3.9,1.5,5.2,1.0,4.6,1.1,–
"COc1cc([C@@H]2c3cc4c(cc3[C@@H](O[C@@H]3O[C@@H]5CO[C@@H](C)O[C@H]5[C@H](O)[C@H]3O)[C@H]3COC(=O)[C@H]23)OCO4)cc(OC)c1O [etoposide, reference compound]",–,–,–,–,–,–,–,–,–,–,–,–,–,–,–,no activity in inducing TOP1-mediated nicking of DNA
